The source of these data is article PMC11432405, “Development of Novel Alaninamide Derivatives with Anticonvulsant Activity and Favorable Safety Profiles in Animal Models” (International Journal of Molecular Sciences, 2024).

Read-outs that look alike come from different tables or passages of the source. Where only a bound is given, the exact number is not on record here.

For orientation: ED50 means the dose at which the effect has come halfway, by size or by number of responders. Broadly, the TD50 is the dose at which the toxic effect under study appears in half of the subjects. A high value points to lower toxicity. Usually inhibition stands for the change of the read-out against control, counted positive when it falls. What is called melting point is the temperature of the solid-liquid transition.

Data set [1] deals with maximal electroshock (MES) seizures. Description: maximal electroshock seizure (MES) test. In kind it is in vivo, mice. The source says: Epilepsy is a multifaceted disorder with often unclear etiology, making it challenging to pinpoint a specific receptor or transporter as the definitive target. Consequently, the discovery of ASMs deviates from the traditional drug development pathway, which typically involves designing a new molecule, docking it with a specific biological target, and performing chemical synthesis, followed by in vitro assays. Instead, numerous animal seizure models, which mirror various types of human epileptic seizures, are initially employed in the process of new ASM discovery. This approach has been instrumental in the identification and introduction into clinical practice of all currently used ASMs and continues to be a cornerstone in the preclinical development of new anticonvulsants. The primary justification for prioritizing in vivo screening over in vitro binding and functional studies is the complex and often not fully elucidated mechanisms of action of known ASMs. This approach also facilitates the discovery of compounds with novel, previously undefined pharmacodynamic properties. In light of this, we evaluated all compounds obtained in the current studies using the MES test, which remains one of the most valuable preclinical screening models for tonic-clonic seizures, as well as partial convulsions with or without secondary generalization in humans. This test allows for a comprehensive assessment of the anticonvulsant efficacy of new ASM candidates and is considered highly relevant for predicting their therapeutic efficacy in human epilepsy. The MES test was carried out in mice following the intraperitoneal (i.p.) administration of a screening dose of 100 mg/kg in a group consisting of four animals. The efficacy of the compounds synthesized was evaluated at 0.5 h pretreatment time.
Fresh solutions were prepared daily for each experimentation session.
Each group consisted of six animals.
A general note: The maximal electroshock test induces tonic seizures with an electrical stimulus.

Data set [2] concerns motor coordination. Description: rotarod test (acute neurological toxicity, motor coordination). The format is in vivo. The note with it: mice i.p., 0.5 h.
Description: (§2) The protective indexes (PIs) were then calculated as the ratio of TD50 to ED50 (PI = TD50/ED50), providing an assessment of the therapeutic window for each compound.
The target in data set [3] is T1, human recombinant MAO-B (Homo sapiens, UniProt P27338).
T1 construct: purchased Sigma Aldrich
T1 sequence (P27338 1-520): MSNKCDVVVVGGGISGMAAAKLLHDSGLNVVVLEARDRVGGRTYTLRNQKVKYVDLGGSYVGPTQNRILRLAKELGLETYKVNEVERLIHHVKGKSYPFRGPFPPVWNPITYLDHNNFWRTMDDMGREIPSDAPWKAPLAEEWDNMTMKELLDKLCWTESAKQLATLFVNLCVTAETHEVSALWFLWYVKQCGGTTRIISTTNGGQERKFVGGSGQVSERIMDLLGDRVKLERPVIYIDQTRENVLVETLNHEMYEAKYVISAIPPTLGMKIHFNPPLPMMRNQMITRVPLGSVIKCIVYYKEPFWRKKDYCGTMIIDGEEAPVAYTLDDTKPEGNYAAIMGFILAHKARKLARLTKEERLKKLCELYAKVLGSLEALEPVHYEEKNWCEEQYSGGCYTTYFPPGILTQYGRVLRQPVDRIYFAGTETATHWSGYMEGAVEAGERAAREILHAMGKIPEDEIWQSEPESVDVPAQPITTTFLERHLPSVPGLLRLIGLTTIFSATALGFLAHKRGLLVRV
In words: fluorometric monoamine oxidase B inhibition assay. The format is biochemical.

The subject of data set [4] is 6 Hz (32 mA) seizures. In words: 6 Hz (32 mA) psychomotor seizure model.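 Also: adult male albino Swiss CD-1 mice, each used once, with compounds suspended in 1% Tween 80 in water as vehicle.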
A short description of data set [5]: rotarod test (acute neurological toxicity, motor coordination). The format is in vivo. The note with it: male, CD-1 (albino Swiss), mouse, in vivo, ip, mice i.p. A general note: The rotarod test checks motor coordination on a turning rod.
Description: as §2
Data set [6] deals with HepG2 cells. In words: hepatocytotoxicity MTT viability assay. In kind it is cell-based, human. As to conditions: 1–50 µM, 24 h. The procedure:
(§1) To evaluate selected compounds’ hepatocytotoxicity and neurocytotoxicity, a human hepatocellular carcinoma cell line, HepG2 (ATCC® HB-8065™), and a human neuroblastoma cell line, SH-SY5Y (ATCC®, CRL-2266™), were used. Both cell lines were cultured in standard culture conditions (5% CO2, 37 °C, 95% humidity) using Dulbecco′s Modified Eagle′s—Medium (DMEM; Gibco, Thermo Scientific, Waltham, MA, USA) supplemented with 10% (vol/vol) fetal bovine serum (FBS; Gibco, Thermo Scientific, Waltham, MA, USA) and an antibiotic mixture (Penicillin, Streptomycin, Amphotericin B; Gibco, Thermo Scientific, Waltham, MA, USA). Cells were cultured with compounds 5, […], or 39 (1–50 µM) for 24 h and then an MTT (3-(4,5-dimethylthiazol-2-yl)-2,5diphenyltetrazolium bromide, Sigma-Aldrich, St. Louis, MO, USA) viability assay was performed. The formazan crystals were dissolved in DMSO (Sigma-Aldrich, St. Louis, MO, USA), and the absorbance at 570 nm was measured using a microplate reader (SpectraMax® iD3, Molecular Devices, San Jose, CA, USA). The experiment was performed three times in duplicate. Each bar represents the mean (±SEM) percentage of viable cells in comparison to the control (defined as 100% and represented by untreated cells).
Figure 2 The viability of HepG2 cells incubated in the presence of 5, 17, and 39. HepG2 cells were exposed to growing concentrations (1–50 µM) of tested compounds for 24 h. Cell viability was measured using an MTT assay. Bars represent mean percent of cell viability normalized to non-treated cells (100%) ± SEM. The doxorubicin was tested as a positive control.

The test system of data set [7] is SH-SY5Y cells. In words: neurocytotoxicity MTT viability assay. As to conditions: 1–50 µM, 24 h. In kind it is cell-based, human. The procedure: as §1
Figure 3 The viability of SH-SY5Y cells incubated in the presence of compounds 5, 17, and 39. […] Cell viability was measured using an MTT assay. […]

[8] abbreviates: mice i.p., 100 mg/kg, 0.5 h, four mice.
Setting [9] is: mice i.p., TPE 0.5 h, 95% confidence interval in parentheses.
The mark [10] stands for this setting: mice i.p., dose of 100 mg/kg, pretreatment time 0.5 h.

Turning to `CC(C(=O)NCc1ccc(OCc2cccc(Cl)c2)cc1)N1C(=O)CCC1=O` (centres unmarked) [Compound 10, N-(4-((3-chlorobenzyl)oxy)benzyl)-2-(2,5-dioxopyrrolidin-1-yl)propanamide], the “PI (TD50/ED50) MES” value in data set [1] (TD50 rotarod / ED50 MES) is > 5.9. For the same compound, the “protection (efficacy) in the MES screening” value in data set [1] (setting [8]) is listed as 100%. The “ED50 MES” value in data set [1] (setting [9]) was 50.87 (45.29–57.13) mg/kg. In addition, the “MES test: number of mice protected / number of mice tested” value in data set [1] (setting [10]) was 4/4. Besides, the “TD50 (rotarod test)” value in data set [2] is given as >300 mg/kg. The “% inhibition MAO-B (1 µM)” value in data set [3] (mean of two independent experiments) amounted to 0%. Besides, in data set [4] (TD50 rotarod / ED50 6 Hz (32 mA)), the “PI (TD50/ED50) 6 Hz” value was > 5.0. Also, in data set [4] (setting [8]), the “protection (efficacy) in the 6 Hz (32 mA) screening” value is listed as 75%. The “ED50 6 Hz (32 mA)” value in data set [4] (setting [9]) is given as 59.31 (45.54–73.08) mg/kg. In addition, in data set [4] (setting [10]), the “6 Hz (32 mA) test: number of mice protected / number of mice tested” value is given as 3/4.

Take `CC(C(=O)NCc1ccc(OCc2ccc(OC(F)(F)F)cc2)cc1)N1C(=O)CCC1=O` (centres unmarked) [Compound 17, 2-(2,5-dioxopyrrolidin-1-yl)-N-(4-((4-(trifluoromethoxy)benzyl)oxy)benzyl)propanamide]: the melting point was in the range of 104.1 to 104.8 °C. For the same compound, in data set [1] (Mus musculus, ip, mice i.p., 100 mg/kg, 0.5 h, four mice, read-out: protection (efficacy) in the MES screening), the responders at 100 mg/kg was found to be 100%. In addition, the ED50 in data set [1] (Mus musculus, ip, mice i.p., TPE 0.5 h, 95% confidence interval in parentheses) stood at 21 mg/kg. Moreover, the responders at 100 mg/kg in data set [1] (Mus musculus, ip, mice i.p., dose of 100 mg/kg, pretreatment time 0.5 h, read-out: MES test: number of mice protected / number of mice tested (converted)) is 100%. In addition, the TD50 at 0.5 h in data set [5] was > 300 mg/kg. The “toxic effect on HepG2 cell viability (MTT)” value in data set [6] is listed as “do not exhibit toxic effects”. Further, the “toxic effect on SH-SY5Y cell viability (MTT)” value in data set [7] is “do not exhibit toxic effects”. The inhibition at 1 µM in data set [3] (read-out: % inhibition MAO-B (1 µM), mean of two independent experiments) is 0%. Besides, the ED50 in data set [4] (Mus musculus, ip, 0.5 h, read-out: ED50 6 Hz (32 mA), mice i.p., TPE 0.5 h, 95% confidence interval in parentheses) amounted to 77 mg/kg. The responders at 100 mg/kg in data set [4] (Mus musculus, ip, 0.5 h, read-out: protection (efficacy) in the 6 Hz (32 mA) screening) is 75%.
